These are literature values, as cited in patent US12447051B2, “Multi-functional analgesic-releasing wound dressing” (University of Utah Research Foundation, priority 2020, dated 2025).

Data set [1] deals with Primary human dermal fibroblast cell cultures. Conditions: bupivacaine concentration of the extracts.

Consider poly(lactide-co-caprolactone) [PLC], for which the in vivo degradation entry is recorded as “greater than 6 months”. Turning to `CCCCN1CCCCC1C(=O)Nc1c(C)cccc1C` (centres unmarked) [bupivacaine], the cytotoxic threshold in data set [1] is 0.5 % w/w.
